Measurements: patent publication US8092825B2, “Glycan binding proteins as therapeutic targets for retinal disorders and treatment methods based thereon” (The University of Tennessee Research Foundation, priority 2007, dated 2012)
“Also recorded” adds a separate entry of the source. One block for each molecule: values may come before it.

Legend:
[1] = system: photoreceptor OS membrane assembly in RPE-deprived retinas; assay: In vitro assay of photoreceptor outer segment (OS) membrane assembly in RPE-deprived Xenopus laevis tadpole retinas; assay type: cell-based; settings: for ability to promote OS assembly in the presence of the Müller cell inhibitor: with 1×10^−5 M α-AAA, IPTG at 5×10^−5 M; for average OS organizational grade (mean±SEM; grade 4 = 100% organization): 5×10^−3 M sugar, three days in culture
Source text: We have used various oligosaccharides at concentrations ranging over four orders of magnitude to evaluate the ability of these oligosaccharides to support OS membrane assembly in RPE-deprived retina, using a Xenopus laevis system that allows for convenient analysis of OS membrane formation in vitro. In the RPE-deprived cultures, the RPE continues to be present as a cluster of cells at the ora serrata; however throughout the posterior pole and periphery of the retina, the RPE layer has been removed from its normal position adjacent to the photoreceptors.
Intact retinas were removed from stage 33/34 Xenopus laevis tadpoles and placed into culture in Niu-Twitty medium for three days as described above. Using this paradigm, all OS material is elaborated while in culture. […]

Müller cells = settings: 1×10^−5 M, RPE-supported retinas; cited from earlier work
[2] = system: photoreceptor OS membrane assembly in RPE-deprived retinas; settings: previous studies (60, 61); cited from earlier work
[3] = system: putative retinal glycan receptor on Müller cells; assay: Binding of biotinylated-NA3 to embryonic retinas, anti-biotin immunostaining and confocal microscopy; set-up: species or system Xenopus laevis; settings: biotinylated-NA3 alone
Source text: Embryonic Xenopus laevis retinas were exposed to two experimental conditions: (1) biotinylated-NA3; and (2) biotinylated-NA3 with a molar excess of IPTG as a competitive sugar, to eliminate non-specific interactions of NA3 with retinal proteins. After exposure to the sugars followed by immunostaining using a mouse anti-biotin primary antibody and a chicken anti-mouse secondary antibody coupled to Alexa fluor 594 using standard protocols, eyes were bisected and viewed using a confocal microscope.
2. Localization of the glycan receptor using biotinylated-NA3 probe. RPE-deprived retinas from stage 33/34 Xenopus laevis tadpoles are exposed to Niu-Twitty medium containing 10^−7 M biotinylated-NA3 for 3 hours, followed by fixation in 4% paraformaldehyde. Control retinas are incubated in NA3+10^−5 M IPTG to reveal non-specific binding of the NA3 ligand. Subsequent procedures are identical to those described above for immunohistochemical localization. In this instance, however, the following primary and secondary antibodies are utilized: anti-biotin, mouse IgG (Molecular Probes) as primary antibody; and anti-mouse chicken IgG labeled with Alexa Fluor 488 (Molecular Probes). To confirm the localization to a particular retinal cell type, sections are co-stained with antisera that are cell type-specific (e.g., directed against Müller cell- or photoreceptor-specific gene products).

[4] = system: xrds38 isoform of Xenopus peripherin2; assay: Antisense oligonucleotide knockdown in isolated Xenopus laevis eye rudiments; assay type: cell-based; settings: steady-state level vs retinas with intact RPE
Source text: We have developed an assay system using intact isolated Xenopus laevis eye rudiments coupled with antisense oligonucleotides that is well suited to evaluating the functional role of specific gene products, e.g., in OS membrane assembly. As an example of the capability of this assay system, we generated a loss-of-function model for peripherin2, a genetically and phenotypically well-characterized gene (76-82). Photoreceptors of Xenopus laevis express three distinct isoforms of the peripherin2 gene; cones express xrds38 exclusively, whereas rods express […] xrds38 (83). For purposes of validation of the antisense assay system, our evaluation was directed to xrds38. Phosphorothioated oligonucleotides (two 20-base antisense oligonucleotides and one 20-base sense oligonucleotide) derived from the 5' end of the coding sequences of the xrds38 isoform of Xenopus peripherin2 were utilized. Additional controls included: retinas with an intact RPE, and retinas devoid of RPE with 5 mM exogenous lactose added to the medium. […] The percentage of retinal cells that had positive uptake of the FITC-conjugated oligonucleotide was determined by comparing the volume of bright to dark areas in optical sections obtained with the confocal microscope. […] The steady-state levels of each protein were compared to the levels detected in control retinas maintained with an intact RPE cell layer.

average grade of OS membranes assembled during exposure to the sugar (early part) ([1]; 5×10^−5 M IPTG with 3H-leucine for two days): about 2.88±0.37 | concentration that optimally supports OS assembly (maximum effect) ([1]; RPE-deprived retinas): 50 µM | fold lower concentration than lactose for comparable effect on OS assembly ([1]; RPE-deprived retinas): 100 fold | average OS grade at maximum response ([1]; RPE-deprived retinas, 5×10^−5 M IPTG): 2.61±0.37 | average grade of OS membranes assembled after removal of the sugar (later stage) ([1]; two further days in non-supplemented medium after IPTG): 1.21±0.31
Molecule: CC(C)S[C@@H]1O[C@H](CO)[C@H](O)[C@H](O)[C@H]1O [IPTG, isopropyl beta-D-thiogalactopyranoside]
ability to promote OS assembly in the presence of the Müller cell inhibitor ([1]; RPE-deprived retinas): severely diminished

Molecule: NC(CCCC(=O)O)C(=O)O (stereo not drawn) [α-AAA, Alpha-aminoadipic acid]
effect on Müller cell morphology and protein expression patterns (Müller cells): selective alterations | effect on ability of photoreceptors to synthesize opsin (Müller cells): no affect | effect on assembly of nascent OS membranes (Müller cells): interfere with the ability of these cells to properly assembly nascent OS membranes

Molecule: O=C[C@@H](O)[C@@H](O)[C@H](O)[C@H](O)CO [mannose]
support of OS assembly in the absence of RPE ([1]; 5×10^−3 M (5 mM)): does not favorably affect the folding of OS; also recorded: fails to support the proper assembly of OS | average OS organizational grade (mean±SEM; grade 4 = 100% organization) ([1]; RPE-deprived retinas): 0.52±0.22 | ability to let OS organize in the absence of the RPE (permissive / non-permissive sugars) [2]: fail to exert any organizational effect

Molecule: asialo, galactosylated, triantennary (NA3) oligosaccharide
binding to photoreceptors [3]: did not bind to any portion of photoreceptors | support of OS assembly in the absence of RPE ([1]; 5×10^−10M): robust support of OS assembly | concentration that optimally supports OS assembly (maximum effect) ([1]; RPE-deprived retinas): 0.0005 µM

Molecule: C[C@H](O)[C@@H](O)[C@@H](O)[C@H](O)C=O [fucose]
ability to let OS organize in the absence of the RPE (permissive / non-permissive sugars) [2]: fail to exert any organizational effect

Molecule: asialo, galactosylated, biantennary (NA2) oligosaccharide
concentration that optimally supports OS assembly (maximum effect) ([1]; RPE-deprived retinas): 0.005 µM

Molecule: O=C[C@H](O)[C@@H](O)[C@@H](O)[C@H](O)CO [galactose]
ability to let OS organize in the absence of the RPE (permissive / non-permissive sugars) [2]: permit OS to organize

Molecule: OC[C@H]1O[C@@H](O[C@H]2[C@H](O)[C@@H](O)C(O)O[C@@H]2CO)[C@H](O)[C@@H](O)[C@H]1O (some centres unmarked) [lactose]
opsin protein level relative to control [4]: not significantly different from controls | peripherin2 protein level relative to control [4]: slightly elevated above control | support of OS assembly in the absence of RPE ([1]; 5×10^−3 M (5 mM)): supports the proper formation of nascent OS; also recorded: OS assembly is supported | concentration that optimally supports OS assembly (maximum effect) ([1]; RPE-deprived retinas): 5000 µM | share of OS membranes highly organized ([1]; RPE-deprived retinas, 5×10^−3 M): 50 to 75% | average OS organizational grade (mean±SEM; grade 4 = 100% organization) ([1]; RPE-deprived retinas): 2.50±0.28 | ability to let OS organize in the absence of the RPE (permissive / non-permissive sugars) [2]: permit OS to organize

B1: PEDF: pigment epithelium derived factor, RPE-secreted protein (protein, UniProt P36955 20-418, looked up)
Pigment epithelium-derived …: QNPASPPEEGSPDPDSTGALVEEEDPFFKVPVNKLAAAVSNFGYDLYRVRSSTSPTTNVLLSPLSVATALSALSLGAEQRTESIIHRALYYDLISSPDIHGTYKELLDTVTAPQKNLKSASRIVFEKKLRIKSSFVAPLEKSYGTRPRVLTGNPRLDLQEINNWVQAQMKGKLARSTKEIPDEISILLLGVAHFKGQWVTKFDSRKTSLEDFYLDEERTVRVPMMSDPKAVLRYGLDSDLSCKIAQLPLTGSMSIIFFLPLKVTQNLTLIEESLTSEFIHDIDRELKTVQAVLTVPKLKLSYEGEVTKSLQEMKLQSLFDSPDFSKITGKPIKLTQVEHRAGFEWNEDGAGTTPSPGLQPAHLTFPLDYHLNQPFIFVLRDTDTGALLFIGKILDPRGP
ability to promote OS assembly in the presence of the Müller cell inhibitor ([1]; RPE-deprived retinas): able to support proper membrane folding
